Experimental data taken from a melting point compilation (Tetko et al.; mined from patent text by program, amines drawn as free bases though some values may be those of a salt).

melting point [°C] | Structure (SMILES)
186 | Nc1ccc(C(=O)O)c2c1OCCO2
209 | CC(=O)OCC(=O)C1C(C)CC2C3CC(Cl)C4=CC(=O)CCC4(C)C3C(O)CC21C (stereo unspecified)
83.5 to 85 | CCOC(=O)C=C(C)NC(=O)OCc1ccc(Cl)c(Cl)c1
134 to 135 | Cc1ccc(C(C)N(O)C(N)=O)cc1 (stereo unspecified)
116 to 117 | C=C(C1=C(CCC(=O)O)C(=O)CC1=O)c1ccccc1
91 to 92 | CC=CC(Oc1nc(OC)cc(OC)n1)C(C)(C)C#N (stereo unspecified)
120 to 121 | COCc1nc(-c2ccc(C(F)(F)F)cc2)ncc1COc1ccc(OC(C)(C)C(=O)O)c(C)c1
141 to 142 | NC(=O)C1CCN(CCO)CC1
257 to 258 | CNc1nccc(Oc2ccc(NC(=O)Nc3ccc(CN4CCN(C(C)(C)C)CC4)c(C(F)(F)F)c3)cc2)n1
198 to 200 | CN(C)S(=O)(=O)c1ccc2c(c1)S(=O)(=O)NC2=O
123 to 125 | COC(=O)CCCNS(=O)(=O)c1ccc2ccccc2c1
250 to 253 | Cn1nc2nc(C(C)(C)C)[nH]c(=O)c2c1N=Cc1ccccc1
69 to 70 | CCOC(=O)C=Cc1ccc(CCc2nc(-c3ccccc3)c(C)s2)cc1
277 to 280 | COc1ccc2c(c1)c1c3c(c(-c4ccccc4Cl)cc1n2C(C)=O)C(=O)NC3=O
> 265 | CCOC(=O)c1cnc2ccc(C#N)cc2c1O
145 to 147 | O=C1OC(CN2CCC(O)(c3ccc(F)cc3)CC2)CN1c1ccc(F)cc1 (stereo unspecified)
164 to 166 | CCn1c(-c2ccc(Cl)c(S(=O)(=O)N(C)C)c2)csc1=Nc1ccccc1C
127 to 129 | COc1ccc(-c2sc3cc(OC)ccc3c2C(=O)c2ccc(Br)cc2)cc1
> 360 | O=C(O)c1ccc2c(c1)S(=O)(=O)c1ccc([N+](=O)[O-])cc1C2=O
214 to 215 | NC1=NC2(CN(C(=O)c3cccs3)C2)Nc2cccc(F)c21
168 to 170 | CCCc1ccccc1OCC(O)COc1cccc2oc(C(=O)O)cc(=O)c12 (stereo unspecified)
150 to 155 | O=C(NC(Cc1ccc(OCc2ccccc2)cc1)C(=O)NC1C(C(=O)O)OC(n2cnc3c(NC(=O)c4ccccc4)ncnc32)C1O)OCc1ccccc1 (stereo unspecified)
196 to 198 | CCOc1cc2c(-c3ccnc(Cl)c3)c(C(=O)OC)c(C(=O)OC)cc2cc1OC
117 to 118 | COc1cc(-c2ncc(S(C)=O)cc2Cl)c(F)cc1Cl (stereo unspecified)

melting point [°C] | Structure (SMILES)
129 to 131 | CC(CO)c1ccc2cc(OCc3ccc4ccccc4n3)ccc2c1 (stereo unspecified)
106 to 108 | Cc1ccccc1OCc1ccccc1I
74 to 76 | COC(=O)C(C)(C)Cc1ccc(CC(C)(C)C(=O)OC)cc1
175 to 176 | NC(=O)c1cc2c(Oc3ccc(C(F)(F)F)cc3)cnc(Cl)c2s1
190 to 191 | COc1ccc(C(=O)NC2CCCNC(=O)C2)cc1OC (stereo unspecified)
150 to 152 | CCC(NC(=O)NS(=O)(=O)C=Cc1ccccc1)C(=O)O (stereo unspecified)
196 to 198 | COc1cc(N)c(Cl)cc1Cn1nc(-c2ccc(Cl)c(Cl)c2)oc1=O
224 to 226 | COC(=O)/C=C/n1cnc2c(OC)cc(OC)cc2c1=O
74 to 77 | COC(=O)CCc1ccc(OCCn2c(=O)sc3cc(C(=O)c4ccccc4)ccc32)cc1
138 to 140 | CCOc1ccc(C(=O)Nc2ccc(C(C)(C)C#N)cc2)cc1OCC
113 to 114 | CCOC(=O)c1sc(Cl)nc1-c1ccc(F)cc1
113 to 115 | OC(c1ccc(F)cc1)(c1ccc(F)cc1)C1CCN(Cc2ccccc2)CC1
117 to 119 | CN(C)C(=O)C(C)(C)n1cc(Cl)c(-c2ccccc2)n1
198 | CCOC(=O)Nc1c(C(=O)O)oc2cc(OCc3ccccc3)ccc12
> 340 | N#Cc1ccc2c(c1)nc1n2CCC(=O)N1
109 to 110 | CC(C)Nc1ccccc1C(=O)O
222 to 224 | O=C(Cc1ccccc1)Nc1cc(-c2ccc(Cl)cc2)[nH]n1
220 to 221 | CCCc1nc2cccc(C(=S)OC)c2n1Cc1ccc(-c2ccccc2-c2nc(=O)o[nH]2)cc1
111 to 113 | CCOC(=O)c1ccc(NCCOc2ccc(Cl)cc2Cl)cc1
215 to 217 | CCCn1c(=O)c2[nH]c(C(C)Cc3ccncc3)nc2n(CCC)c1=O (stereo unspecified)
202 to 204 | CN(CCCOc1ccc(C=C2SC(=O)NC2=O)cc1)c1nc2ccccc2o1
160 | OC1CSC(Oc2cccc3ccoc23)C(O)C1O (stereo unspecified)
98 to 100 | COc1ccc(S(=O)(=O)c2ncoc2C(C)C)cc1
115 to 116 | COC(=O)c1c(-c2ccc(OC)cc2)ccc2ccccc12

melting point [°C] | Structure (SMILES)
85 to 86 | COc1ccc(CSc2cccc(N)c2)cc1
98 | CCOC(=O)C1CC(O)CN1C(=O)c1ccc2c(c1)OCO2 (stereo unspecified)
108 to 120 | CC(=O)OC1=CC2=CCC3C4CC(C)C(O)(CC(=O)OC(=O)C(C)(C)C)C4(C)CC4OC43C2(C)C=C1 (stereo unspecified)
120 to 122 | CCc1nn(CCO)c(CC)c1Oc1cc(F)cc(-n2cccn2)c1
152 to 154 | O=Cc1cn(-c2ccc(F)cc2)c2ccc(Cl)cc12
285 to 294 | O=C(O)c1ccc(CNc2nc(-c3cccnc3)nc3ccccc23)cc1
227 to 229 | Cn1nc(C(=O)NCc2ccc(Cl)cc2)c(=O)c2cc(C#CCCO)ccc21
124 to 126 | N#CCCCN1C(=O)C(O)(c2cccc(Cl)c2)c2ccccc21 (stereo unspecified)
191 to 192 | Nc1cc(Cl)nc(S(=O)(=O)Cc2cccc(Br)c2)n1
66 to 68 | CC(=O)O[C@H]1CC[C@H](CCCCCCC(=O)O)CC1
173 to 174 | O=Cc1ccc(-c2ccc(-c3ccc(C=O)o3)cc2)cc1
154 to 157 | CC(C)(C)OC(=O)CCc1ccc(O)cc1CN
244 to 246 | CC(C)(C)c1cc(-n2nc3c(Br)ccc(Br)c3n2)c(O)c(C(C)(C)C)c1
135 to 137 | CC(C)NCC#CC1(O)c2ccccc2-c2ccccc21
277 to 281 | Nc1cc(-n2cc(C(=O)O)c(=O)c3cc(F)c(F)c(Cl)c32)cnc1Cl
150 to 151 | CC(C)c1ccc(OC(Cc2ccc(OCCNC(=O)c3ccc(-c4ccc(N(C)C)cn4)cc3)cc2)C(=O)O)cc1 (stereo unspecified)
191 to 192 | COC(=O)c1cc(NC(=O)C(F)(F)F)c2cc(Cc3ccc(F)cc3)cnc2c1O
175 | CCCCCCCC(=O)N(C)Cc1cc(-c2ccc(C=CC(=O)O)cc2)cs1
95 to 97 | CSc1nccn1N=Cc1ccccc1
223 to 224 | O=C1CNC2=C(CCc3cc(F)ccc32)C1
38.5 to 40 | CCC(C(=O)N(C)C)n1ccc(-c2ccccc2Cl)n1 (stereo unspecified)
207 to 211 | O=C1NCCN(Cc2ccc(OCc3ccccc3)cc2)C1c1ccccc1 (stereo unspecified)
201 to 203 | CN1CCN(C(=O)c2ccc(-c3cnc4c(c3)N(C(=O)c3cc(F)ccc3F)CCN4)cc2)CC1
258 | Cc1c(Cl)cc(C(C)(C)C)c(O)c1-c1nc2cc(C#N)ccc2[nH]1

melting point [°C] | Structure (SMILES)
104 to 105 | Fc1ccc(C2CCN(CCN(CCN3CCC(c4ccc(F)cc4)CC3)c3ccccc3)CC2)cc1
188 to 191 | Cc1c(SCCCCl)ccnc1CSc1nc2cc(F)ccc2[nH]1
190 to 192 | O=C(O)C1=Cc2cc(Cl)cc(C#Cc3ccccc3)c2OC1C(F)(F)F (stereo unspecified)
144 to 146 | CC(c1ccc(-c2ccccc2F)cc1)S(=O)(=O)CC(=O)O (stereo unspecified)
194 to 196 | CCOCc1nc2c(N)nc3cc(-c4cccnc4)ccc3c2n1CCNC(=O)NC(C)C
54 | COC(=O)CC1C(OC(C)=O)CC(=O)C1C(=O)OC (stereo unspecified)
259 to 261 | COc1ccc(C(=O)O)cc1NC(=O)c1cc(C(C)(C)C)c(O)c(C(C)(C)C)c1
147 to 149 | NC1(C(=O)c2ccccc2)CCSC1 (stereo unspecified)
69 | O=C1CCCCCN1C(=O)c1ccccc1
163 to 164 | CCOC(=O)C1(F)C(=O)NC(=O)NC1O/N=C\c1ccc(C)o1 (stereo unspecified)
200 to 205 | CN(Cc1cc(C(=O)O)ccc1N)C1CCCCC1
78 to 80 | COC(=O)c1cccc(OCc2ncc3ccccc3n2)c1
99 to 101 | Cc1nn(C)c2nc(N(CC(C)C)CC3CC3)c(CN(Cc3cc(C(F)(F)F)cc(C(F)(F)F)c3)c3nnn(C)n3)cc12
139 to 140 | O=C(CCCCCCc1ccccc1)Oc1cc(=O)n(-c2ccccc2)c2ncccc12
94 to 95 | Cc1ccc(C(=O)COc2cc(C)cc(C)c2C)cc1
145 to 148 | Cn1c(-c2ccccc2)cc2onc(-c3ccccc3)c2c1=O
160 to 163 | CN(C)C(CC(F)C(=O)c1ccccc1)N1CCC(O)(c2ccc(Cl)cc2)CC1 (stereo unspecified)
285 to 290 | O=C1Nc2ccc(Br)cc2C1c1ncnc2nn(C3CCCCC3)cc12 (stereo unspecified)
95 to 98 | CCCCN(Cc1ccc(-c2ccccc2-c2nc(=O)o[nH]2)cc1)c1ncccc1C(=O)O
47 to 48 | COC1=C(OC)C(=O)C2=C(CC(CCCCCCCCOC(C)=O)C2)C1=O
72 to 74 | Cc1c(C)n(Cc2ccccc2)c(=O)n(CCCCl)c1=O
298 | O=C1CCC2C=C(c3cccnc3)C(O)=CC2N1 (stereo unspecified)
177 to 178 | CCOC(=O)c1cn(C(C)C(=O)c2ccccc2)c2nc(-c3ccccc3)c(C)n2c1=O (stereo unspecified)
87 to 89 | CCCCOCCOc1ccc(-c2ccc3c(c2)C=C(C(=O)Nc2ccc(CS(=O)c4nncn4C)cc2)CCN3CC(C)C)cc1 (stereo unspecified)

Structure (SMILES) | melting point [°C]
COC(=N)N1CCC(c2nn(C)c3cc(F)ccc23)CC1 | 132 to 135
N#Cc1nn(-c2c(Cl)cc(C(F)(F)F)cc2Cl)c(N)c1C1=CCCCC1 | 175 to 177
c1ccc2c(N3CCNCC3)nccc2c1 | 54 to 56
CCCc1c(C(=O)N(C)C)c2ccc(C(N)=O)cc2n1Cc1ccccc1Cl | 213 to 214
C#CC1(O)CCC2C3CCC4=CCCCC4C3C(=CF)CC21C (stereo unspecified) | 103 to 104
